{"source": "patent US20260035452A1", "about": "(THE UNIVERSITY OF BIRMINGHAM, priority 2022, published 2026)", "test_system": "NIH-3T3 mouse embryonic fibroblast cells", "experiment": "IL-6 secretion by NIH-3T3 fibroblasts (Elisa)", "assay_type": "cell-based", "conditions": "NIH-3T3 cells, 50 ng/ml, vs control / IL-17 group", "protocol": "FIG. 2: NIH-3T3 mouse embryonic fibroblast cells were treated with IL-17 vehicle (Ctrl), IL-17 (50 ng/ml) alone (IL-17) or peptide (FM-0410) (50 ng/ml) and supernatants were assayed by Elisa for IL-6. Data were expressed as pg/ml and presented as means±S.D. of three separate independent experiments. Statistical analysis was conducted by one-way ANOVA followed by Bonferroni's for multiple comparisons. ^##P≤0.01, ^###P≤0.005 vs Ctrl group; *P≤0.05 vs IL-17 group. In order to assess the biological activity of synthesized peptide, we carried out in vitro studies using NIH-3T3 mouse embryonic fibroblast cells. […] With this in vitro system we measured IL-17 activity by its ability to induce IL-6 secretion by NIH-3T3 mouse embryonic fibroblast cells. Methods: The levels of IL-6 in the cellular and air pouch inflammatory supernatants at 24 h were measured using commercially available enzyme-linked immunosorbent assay kit (ELISA kit, R&D System, Milan, Italy) according to the manufacturer instructions. […] The addition of 100 μl of the substrate and stop solution represented the last steps before the reading of absorbance (measured at 450 nm) on a microplate reader. Antigen levels in the samples were determined using a standard curve and expressed as pg/ml. […]", "note": "No end group written: not given here."}
{"substance": "Ac-LEKILVSVGATAVTPIVHHVAC [FM-0410]", "values": [{"measurement": "IL-6 release", "result": "significant, and more abundant, release of IL-6 compared to IL-17-treated group"}]}
